Measured values as given in ChEMBL document CHEMBL4715878 (J Med Chem, 2020).
Calls of active or inactive are those of the source. The calls are words filed in the database; no cut-off is given here.

Tests used:
[1] = Antiproliferative activity against human BC assessed as lethality at 10 uM after 48 hrs by SRB assay relative to control; type: functional
[2] = tested on: Panel NCI-60 (60 carcinoma cell lines); assay: Antiproliferative activity against human NCI60 cells assessed as lethality at 10 uM after 48 hrs by SRB assay relative to control; type: functional
MCF7 [3] = assay: Potency index, ratio of lapatinib IC50 to test compound IC50 for antiproliferative activity against human MCF7 cells; type: functional
[4] = Antiproliferative activity against human BC assessed as cell growth inhibition at 10 uM after 48 hrs by SRB assay relative to control; type: functional; conditions: read-out: GI
[5] = tested on: Panel NCI-60 (60 carcinoma cell lines); assay: Antiproliferative activity against human NCI60 cells assessed as mean cell growth at 10 uM after 48 hrs by SRB assay relative to control; type: functional
MDA-MB-468 [6] = assay: Antiproliferative activity against human MDA-MB-468 cells assessed as cell growth inhibition after 48 hrs by SRB assay; type: functional
AU565 = assay: Antiproliferative activity against human AU565 cells assessed as reduction in cell viability incubated for 72 hrs by WST8 assay; type: functional, cell-based; conditions: AU565, 72 h
MCF7 [7] = assay: Antiproliferative activity against human MCF7 cells assessed as lethality at 10 uM after 48 hrs by SRB assay relative to control; type: functional
[8] = Antiproliferative activity against human MDA-MB-231 cells assessed as lethality at 10 uM after 48 hrs by SRB assay relative to control; type: functional, MDA-MB-23
MDA-MB-231 = assay: Antiproliferative activity against human MDA-MB-231 cells assessed as reduction in cell viability incubated for 72 hrs by WST8 assay; type: functional, cell-based; conditions: MDA-MB-231, 72 h
MDA-MB-468 [9] = assay: Antiproliferative activity against human MDA-MB-468 cells assessed as lethality at 10 uM after 48 hrs by SRB assay relative to control; type: functional
MDA-MB-468 [10] = assay: Antiproliferative activity against human MDA-MB-468 cells assessed as cell growth inhibition at 10 uM after 48 hrs by SRB assay relative to control; type: functional; conditions: read-out: GI
BT-474 [11] = assay: Antiproliferative activity against human BT474 cells assessed as reduction in cell viability incubated for 72 hrs by WST8 assay; type: functional, cell-based; conditions: BT-474, 72 h
MCF7 [12] = assay: Antiproliferative activity against human MCF7 cells assessed as reduction in cell viability incubated for 72 hrs by WST8 assay; type: functional, cell-based; conditions: MCF7, 72 h
BT-474 [13] = assay: Down regulation of HER2 expression in human BT474 cells at 0.5 IC50 after 24 to 48 hrs by Western blot analysis; type: functional, cell-based; conditions: time 24-48 hrs
[14] = target: Receptor tyrosine-protein kinase erbB-4 (Homo sapiens, UniProt Q15303); assay: Effect on human recombinant N-terminal GST-tagged HER4 (682 to 993) expressed in baculovirus infected Sf9 insect cells in presence of substrate and [gamma-32ATP] at 10 uM incubated for 30 mins by scintillation counting based radiometry assay relative to control; conditions: 0.5 h, read-out: Activity
BT-474 [15] = assay: Antitumor activity against human BT474 cells xenografted in athymic nude mouse assessed as tumor necrosis at 50 mg/kg, po administered via oral gavage for 5 times in a week for 55 days measured post-last dose by H and E staining based immunohistochemical analysis; type: functional, organism-based; conditions: time 55.0 day
in vitro [16] = conditions: CD-1, mouse, liver microsomes
BT-474 [17] = assay: Antitumor activity against human BT474 cells xenografted in athymic nude mouse assessed as inflammation in tumors at 50 mg/kg, po administered via oral gavage for 5 times per week for 55 days measured post-last dose by H and E staining based immunohistochemical analysis; type: functional, organism-based; conditions: time 55.0 day
BT-474 [18] = assay: Antitumor activity against human BT474 cells xenografted in athymic nude mouse assessed as appearance of tumor fibrosis at 50 mg/kg, po administered via oral gavage for 5 times in a week for 55 days measured post-last dose by H and E staining based immunohistochemical analysis; type: functional, organism-based; conditions: time 55.0 day
in vitro [19] = conditions: CD-1, mouse, liver microsomes; remark: listed apart in the source
[20] = target: Epidermal growth factor receptor (Homo sapiens, UniProt P00533); conditions: 0.5 h
Description: Effect on human EGFR in presence of substrate and [gamma-32ATP] at 10 uM incubated for 30 mins by scintillation counting based radiometry assay relative to control

[21] = target: T1, Receptor tyrosine-protein kinase erbB-2 (Homo sapiens, UniProt P04626); conditions: Sf9, human, 0.5 h
BT-474 [22] = assay: Induction of apoptosis in human BT474 cells assessed as increase in early apoptotic cells incubated for 72 hrs by Annexin V-FITC/PI staining based flow cytometry analysis; type: functional, cell-based; conditions: dose 0.1-5 µM
in vitro [23] = conditions: CD-1, mouse, liver microsomes; remark: listed apart in the source
Description: Metabolic stability in CD-1 mouse liver microsomes assessed as parent compound remaining at 100 uM measured after 60 mins in presence of NADPH by LC-MS/MS analysis

in vitro [24] = conditions: CD-1, mouse, microsomes
[25] = target: T1, Receptor tyrosine-protein kinase erbB-2; assay: Inhibition of HER2 in human BT474 cells assessed as reduction in Akt phosphorylation at 0.1 IC50 after 24 to 48 hrs by Western blot analysis; type: cell-based; conditions: BT-474, time 24-48 hrs
[26] = target: T1, Receptor tyrosine-protein kinase erbB-2; assay: Inhibition of HER2 in human BT474 cells assessed as reduction in Erk1/2 phosphorylation at 0.1 IC50 incubated for 24 to 48 hrs by western blot analysis; type: cell-based; conditions: BT-474, time 24-48 hrs
BT-474 [27] = assay: Antitumor activity against human BT474 cells xenografted in athymic nude mouse assessed as tumor weight at 50 mg/kg, po administered via oral gavage for 5 times in a week for 55 days measured post last dose (reference value: 2.046 g); type: functional; conditions: time 55 day
BT-474 [28] = assay: Antitumor activity against human BT474 cells xenografted in athymic nude mouse assessed as reduction in metastasis of cells at 50 mg/kg, po administered via oral gavage for 5 times per week for 55 days measured post-last dose; type: functional, organism-based; conditions: time 55.0 day
BT-474 [29] = assay: Antitumor activity against human BT474 cells xenografted in athymic nude mouse assessed as tumor growth inhibition at 50 mg/kg, po administered via oral gavage for 5 times in a week for 55 days measured post last dose; type: functional, organism-based; conditions: time 55.0 day
BT-474 [30] = assay: Down regulation of HER2 expression in human BT474 cells at 0.1 IC50 after 24 to 48 hrs by Western blot analysis; type: functional, cell-based; conditions: time 24-48 hrs
[31] = target: T1, Receptor tyrosine-protein kinase erbB-2; assay: Inhibition of HER2 in human BT474 cells assessed as reduction in Erk1/2 phosphorylation at 0.5 IC50 incubated for 24 to 48 hrs by western blot analysis; type: cell-based; conditions: BT-474, time 24-48 hrs
BT-474 [32] = assay: Induction of apoptosis in human BT474 cells assessed as increase in late apoptotic cells at 0.5 to 5 uM incubated for 72 hrs by Annexin V-FITC/PI staining based flow cytometry analysis relative to control; type: functional; conditions: dose 0.5-5 µM
[33] = target: T1, Receptor tyrosine-protein kinase erbB-2; assay: Inhibition of HER2 in human BT474 cells assessed as reduction in Akt phosphorylation at 0.1 IC50 incubated for 24 to 48 hrs by western blot analysis; type: cell-based; conditions: BT-474, time 24-48 hrs
[34] = target: T1, Receptor tyrosine-protein kinase erbB-2; assay: Inhibition of HER2 in human BT474 cells assessed as reduction in Akt phosphorylation at 0.5 IC50 after 24 to 48 hrs by Western blot analysis; type: cell-based; conditions: BT-474, time 24-48 hrs
[35] = target: T1, Receptor tyrosine-protein kinase erbB-2; assay: Inhibition of HER2 in human BT474 cells assessed as reduction in Akt phosphorylation at 0.5 IC50 incubated for 24 to 48 hrs by western blot analysis; type: cell-based; conditions: BT-474, time 24-48 hrs
[36] = target: T1, Receptor tyrosine-protein kinase erbB-2; assay: Inhibition of HER2 (unknown origin) in presence of substrate incubated for 30 mins by ADP-Glo assay
[37] = target: T1, Receptor tyrosine-protein kinase erbB-2; assay: Inhibition of wild-type HER2 (unknown origin) at 0.5 nM in presence of substrate incubated for 30 mins by ADP-Glo assay relative to control
BT-474 [38] = assay: Induction of apoptosis in human BT474 cells assessed as increase in early apoptotic cells at 0.5 to 5 uM incubated for 72 hrs by Annexin V-FITC/PI staining based flow cytometry analysis relative to control; type: functional; conditions: dose 0.5-5 µM
[39] = target: Platelet-derived growth factor receptor alpha (Homo sapiens, UniProt P16234); assay: Effect on human recombinant N-terminal GST-tagged PDGFRalpha (550 to end residues) expressed in baculovirus infected Sf9 insect cells in presence of substrate and [gamma-32ATP] at 10 uM incubated for 30 mins by scintillation counting based radiometry assay relative to control; conditions: 0.5 h, read-out: Activity
BT-474 [40] = assay: Antitumor activity against human BT474 cells xenografted in athymic nude mouse assessed as suppression of tumor growth by measuring decrease in number of Ki67 positive cells at 50 mg/kg, po administered via oral gavage for 5 times per week for 55 days measured post-last dose by Ki67-staining based immunohistochemistry; type: functional, organism-based; conditions: time 55.0 day
in vitro [41] = conditions: CD-1, mouse, liver microsomes; remark: listed apart in the source
Description: Metabolic stability in CD-1 mouse liver microsomes assessed as parent compound remaining at 100 uM measured after 60 mins by LC-MS/MS analysis

Sequence of Platelet-derived growth factor receptor alpha (P16234 whole entry): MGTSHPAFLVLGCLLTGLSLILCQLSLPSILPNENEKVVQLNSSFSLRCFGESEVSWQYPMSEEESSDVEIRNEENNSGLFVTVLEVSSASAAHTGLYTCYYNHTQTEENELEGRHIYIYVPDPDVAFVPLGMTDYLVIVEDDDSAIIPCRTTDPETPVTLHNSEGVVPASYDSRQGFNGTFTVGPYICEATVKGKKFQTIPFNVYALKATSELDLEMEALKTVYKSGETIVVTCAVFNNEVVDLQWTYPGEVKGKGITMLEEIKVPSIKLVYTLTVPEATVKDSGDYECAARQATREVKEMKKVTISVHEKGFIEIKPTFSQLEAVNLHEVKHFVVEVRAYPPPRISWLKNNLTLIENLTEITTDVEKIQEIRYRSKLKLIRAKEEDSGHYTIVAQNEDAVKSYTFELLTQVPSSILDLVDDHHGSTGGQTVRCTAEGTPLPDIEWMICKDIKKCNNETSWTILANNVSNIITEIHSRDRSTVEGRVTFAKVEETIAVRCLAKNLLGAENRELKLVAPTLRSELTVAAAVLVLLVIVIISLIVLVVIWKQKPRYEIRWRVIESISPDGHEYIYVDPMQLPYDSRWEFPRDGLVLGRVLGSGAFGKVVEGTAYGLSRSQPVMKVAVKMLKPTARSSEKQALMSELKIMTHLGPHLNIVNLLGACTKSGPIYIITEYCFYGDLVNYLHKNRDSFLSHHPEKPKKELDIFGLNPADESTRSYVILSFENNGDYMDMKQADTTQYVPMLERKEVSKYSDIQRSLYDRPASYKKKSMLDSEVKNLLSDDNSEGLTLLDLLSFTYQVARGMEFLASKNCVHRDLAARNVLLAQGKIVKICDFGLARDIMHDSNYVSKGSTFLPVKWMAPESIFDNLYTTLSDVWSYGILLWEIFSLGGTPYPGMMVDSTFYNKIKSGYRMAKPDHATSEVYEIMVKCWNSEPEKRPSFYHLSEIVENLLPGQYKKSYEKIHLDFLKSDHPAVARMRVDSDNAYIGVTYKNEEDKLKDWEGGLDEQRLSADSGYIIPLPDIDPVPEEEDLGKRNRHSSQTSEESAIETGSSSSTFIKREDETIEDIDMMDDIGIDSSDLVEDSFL
T1 sequence (P04626 whole entry): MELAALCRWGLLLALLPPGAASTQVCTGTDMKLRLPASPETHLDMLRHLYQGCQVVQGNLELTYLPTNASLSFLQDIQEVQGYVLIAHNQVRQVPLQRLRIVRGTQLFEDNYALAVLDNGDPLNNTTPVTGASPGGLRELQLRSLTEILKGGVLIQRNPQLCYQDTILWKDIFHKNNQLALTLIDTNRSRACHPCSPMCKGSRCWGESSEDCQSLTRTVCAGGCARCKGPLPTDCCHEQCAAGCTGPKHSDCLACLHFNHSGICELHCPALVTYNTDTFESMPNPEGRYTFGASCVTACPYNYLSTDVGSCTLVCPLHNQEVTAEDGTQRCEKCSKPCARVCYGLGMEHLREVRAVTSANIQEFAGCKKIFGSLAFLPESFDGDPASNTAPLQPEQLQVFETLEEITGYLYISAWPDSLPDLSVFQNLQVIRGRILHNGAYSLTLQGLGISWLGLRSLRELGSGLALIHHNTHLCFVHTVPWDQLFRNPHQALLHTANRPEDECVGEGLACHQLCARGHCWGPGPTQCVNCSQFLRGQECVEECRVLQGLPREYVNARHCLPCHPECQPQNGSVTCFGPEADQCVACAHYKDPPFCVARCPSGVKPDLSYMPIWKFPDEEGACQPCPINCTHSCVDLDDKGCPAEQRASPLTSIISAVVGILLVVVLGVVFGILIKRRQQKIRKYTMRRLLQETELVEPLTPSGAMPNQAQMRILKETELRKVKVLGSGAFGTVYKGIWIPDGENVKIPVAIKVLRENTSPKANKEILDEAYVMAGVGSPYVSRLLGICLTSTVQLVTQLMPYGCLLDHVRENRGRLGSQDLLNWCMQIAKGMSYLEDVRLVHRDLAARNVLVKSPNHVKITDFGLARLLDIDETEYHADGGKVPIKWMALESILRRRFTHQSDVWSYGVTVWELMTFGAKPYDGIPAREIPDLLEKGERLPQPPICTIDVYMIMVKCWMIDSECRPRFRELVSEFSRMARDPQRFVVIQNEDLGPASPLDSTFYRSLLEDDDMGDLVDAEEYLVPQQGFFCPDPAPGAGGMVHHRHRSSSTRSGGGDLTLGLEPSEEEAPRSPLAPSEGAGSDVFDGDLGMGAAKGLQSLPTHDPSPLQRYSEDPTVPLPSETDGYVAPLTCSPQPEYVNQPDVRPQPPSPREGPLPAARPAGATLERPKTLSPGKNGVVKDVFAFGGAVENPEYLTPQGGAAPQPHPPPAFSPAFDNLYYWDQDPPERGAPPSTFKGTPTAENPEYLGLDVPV
Sequence of Receptor tyrosine-protein kinase erbB-4 (Q15303 whole entry): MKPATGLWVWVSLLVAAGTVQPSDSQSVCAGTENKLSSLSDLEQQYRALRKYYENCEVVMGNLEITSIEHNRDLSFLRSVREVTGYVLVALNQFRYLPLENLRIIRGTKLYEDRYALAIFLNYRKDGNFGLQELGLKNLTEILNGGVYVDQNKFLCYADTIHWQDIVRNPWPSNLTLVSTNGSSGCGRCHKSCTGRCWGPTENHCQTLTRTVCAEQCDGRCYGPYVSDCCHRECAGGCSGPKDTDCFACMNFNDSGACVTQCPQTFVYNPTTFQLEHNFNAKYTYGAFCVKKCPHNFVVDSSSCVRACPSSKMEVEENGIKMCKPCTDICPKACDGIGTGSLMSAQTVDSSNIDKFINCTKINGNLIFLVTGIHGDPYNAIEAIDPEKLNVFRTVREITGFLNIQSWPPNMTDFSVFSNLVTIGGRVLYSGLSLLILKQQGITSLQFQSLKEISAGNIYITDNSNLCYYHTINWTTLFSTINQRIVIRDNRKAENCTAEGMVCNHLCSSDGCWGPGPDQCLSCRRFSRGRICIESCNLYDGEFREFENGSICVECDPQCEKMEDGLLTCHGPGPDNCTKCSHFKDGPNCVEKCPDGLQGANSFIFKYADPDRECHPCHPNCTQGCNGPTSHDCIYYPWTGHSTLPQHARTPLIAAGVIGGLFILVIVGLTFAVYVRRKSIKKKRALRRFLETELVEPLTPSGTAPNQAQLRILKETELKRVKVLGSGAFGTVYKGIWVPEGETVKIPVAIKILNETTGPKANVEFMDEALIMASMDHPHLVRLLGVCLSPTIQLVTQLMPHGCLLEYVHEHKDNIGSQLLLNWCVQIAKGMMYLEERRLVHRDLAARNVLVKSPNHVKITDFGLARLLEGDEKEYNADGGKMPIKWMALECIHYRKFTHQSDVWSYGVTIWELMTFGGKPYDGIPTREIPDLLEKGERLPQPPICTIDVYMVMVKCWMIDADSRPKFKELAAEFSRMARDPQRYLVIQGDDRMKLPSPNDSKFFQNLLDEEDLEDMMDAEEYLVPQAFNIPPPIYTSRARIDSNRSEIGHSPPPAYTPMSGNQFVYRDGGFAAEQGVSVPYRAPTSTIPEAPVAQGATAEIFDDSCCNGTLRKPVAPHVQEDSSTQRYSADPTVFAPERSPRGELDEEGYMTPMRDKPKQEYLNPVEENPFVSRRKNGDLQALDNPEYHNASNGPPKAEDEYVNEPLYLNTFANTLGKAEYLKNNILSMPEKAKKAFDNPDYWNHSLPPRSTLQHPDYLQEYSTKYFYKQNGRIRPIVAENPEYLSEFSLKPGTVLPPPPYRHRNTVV
Sequence of Epidermal growth factor receptor (P00533 whole entry): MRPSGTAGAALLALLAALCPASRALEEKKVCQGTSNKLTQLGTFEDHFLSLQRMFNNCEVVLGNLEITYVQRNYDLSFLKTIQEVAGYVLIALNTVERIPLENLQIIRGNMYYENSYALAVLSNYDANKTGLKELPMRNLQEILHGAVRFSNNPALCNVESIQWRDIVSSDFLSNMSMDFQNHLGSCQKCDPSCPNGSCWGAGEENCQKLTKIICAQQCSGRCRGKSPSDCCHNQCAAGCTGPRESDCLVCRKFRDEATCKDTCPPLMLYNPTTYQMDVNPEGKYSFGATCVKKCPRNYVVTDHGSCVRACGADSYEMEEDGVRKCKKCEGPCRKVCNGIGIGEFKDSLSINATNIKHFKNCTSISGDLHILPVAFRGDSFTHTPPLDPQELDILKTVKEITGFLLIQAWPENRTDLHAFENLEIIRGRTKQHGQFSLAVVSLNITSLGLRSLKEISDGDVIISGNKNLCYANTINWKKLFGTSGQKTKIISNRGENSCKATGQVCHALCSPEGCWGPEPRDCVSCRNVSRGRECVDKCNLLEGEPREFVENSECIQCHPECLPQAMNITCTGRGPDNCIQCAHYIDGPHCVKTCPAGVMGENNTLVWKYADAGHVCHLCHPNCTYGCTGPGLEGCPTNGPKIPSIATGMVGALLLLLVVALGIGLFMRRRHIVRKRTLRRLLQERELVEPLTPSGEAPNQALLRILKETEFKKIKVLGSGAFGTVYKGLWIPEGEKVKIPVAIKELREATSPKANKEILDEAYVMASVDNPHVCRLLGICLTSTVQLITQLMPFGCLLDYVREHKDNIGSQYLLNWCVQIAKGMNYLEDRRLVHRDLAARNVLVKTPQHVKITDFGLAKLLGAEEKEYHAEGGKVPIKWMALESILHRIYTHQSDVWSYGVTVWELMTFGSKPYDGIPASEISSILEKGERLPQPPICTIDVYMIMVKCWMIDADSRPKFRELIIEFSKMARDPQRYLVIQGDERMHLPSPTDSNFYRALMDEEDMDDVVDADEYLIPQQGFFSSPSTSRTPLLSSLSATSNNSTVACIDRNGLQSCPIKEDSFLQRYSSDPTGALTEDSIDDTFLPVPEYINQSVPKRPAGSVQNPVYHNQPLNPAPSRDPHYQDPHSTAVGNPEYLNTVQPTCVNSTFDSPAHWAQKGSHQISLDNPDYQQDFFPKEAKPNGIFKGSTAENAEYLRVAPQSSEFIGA

In the case of CCN(CC)CCCOc1ccc2ncnc(Nc3ccc(Oc4cccc(C(F)(F)F)c4)c(Cl)c3)c2c1, the Activity [1] is reported as “<=78.7%”, the Activity [2] is reported as 1.3% and the “Ratio IC50” value (MCF7 [3]) is reported as “<=20”. The inhibition of growth at 10 µM [4] was ≤ 78.7%, the Activity [5] was 11.85% and the GI50 (MDA-MB-468 [6]) was 900 nM. For the same compound, the IC50 (AU565) was 289 nM, the Activity (MCF7 [7]) was 11.7% and the Activity [8] was 11.7%. For the same compound, the IC50 (MDA-MB-231) was 1370 nM, the Activity (MDA-MB-468 [9]) was 11.7% and the inhibition of growth at 10 µM (MDA-MB-468 [10]) was 18.8%. It also gave an IC50 (BT-474 [11]) of 213 nM and an IC50 (MCF7 [12]) of 1600 nM.

For O=C(Nc1ccc2ncnc(Nc3ccc(Oc4cccc(F)c4)c(Cl)c3)c2c1)c1ccc(CNCCO)cc1, the Activity (BT-474 [13]) was “Active”, the Activity [1] was “<=78.7%” and the Activity [2] was 1.3%. For the same compound, the activity at 10 µM [14] was -98%, the Activity (BT-474 [15]) was “Active” and the CLint scaled at 1 h, 100 µM (in vitro [16]) was < 38 mL/min/kg. For the same compound, the inhibition of growth at 10 µM [4] was ≤ 78.7%, the Activity (BT-474 [17]) was “Active” and the Activity (BT-474 [18]) was “Active”. The Activity [5] was 11.85%, the half-life at 1 h, 100 µM (in vitro [19]) was > 2.42 h and the GI50 (MDA-MB-468 [6]) was 600 nM. For the same compound, the activity at 10 µM [20] was -70%, the IC50 (AU565) was 205 nM and the Activity (MCF7 [7]) was 18%. For the same compound, the activity at 10 µM [21] was -92%, the Activity (BT-474 [22]) was “Dose-dependent effect” and the remaining at 1 h, 100 µM (in vitro [23]) was 103%. The microsomal CLint at 1 h, 100 µM (in vitro [24]) was < 9.6 µL/min/mg, the Activity [8] was 18% and the inhibition [25] was “Active”. For the same compound, the inhibition [26] was “Active”, the Activity (BT-474 [27]) was 0.572 g and the Activity (BT-474 [28]) was “Active”. The IC50 (MDA-MB-231) was 5230 nM, the TGI (BT-474 [29]) was “Active” and the Activity (BT-474 [30]) was “Active”. For the same compound, the inhibition [31] was “Active”, the Activity (BT-474 [32]) was “inactive” and the inhibition [33] was “Active”. The Activity (MDA-MB-468 [9]) was 18%, the inhibition of growth at 10 µM (MDA-MB-468 [10]) was 18.8% and the inhibition [34] was “Active”. For the same compound, the inhibition [35] was “Active”, the IC50 (BT-474 [11]) was 204 nM and the IC50 (MCF7 [12]) was 5640 nM. For the same compound, the IC50 [36] was 12 nM, the inhibition [37] was 3% and the “fold change (FC)” value (BT-474 [38]) was “<=6”. For the same compound, the activity at 10 µM [39] was -4%, the Activity (BT-474 [40]) was “Active” and the remaining at 1 h, 100 µM (in vitro [41]) was 100%.

Work on Cc1cccc(Oc2ccc(Nc3ncnc4ccc(NC(=O)CNCCO)cc34)cc2Cl)c1 yielded an activity at 10 µM [14] of -99%, an activity at 10 µM [20] of -78% and an IC50 (AU565) of 304 nM. It also gave an activity at 10 µM [21] of -93%, an IC50 (MDA-MB-231) of 7830 nM and an IC50 (BT-474 [11]) of 132 nM. For the same compound, the IC50 (MCF7 [12]) was 10800 nM and the activity at 10 µM [39] was 86%.

With C[C@]12CC[C@H]3[C@@H](CCC4=CC(=O)CC[C@@]43C)[C@@H]1CC[C@@H]2O [TESTOSTERONE] the CLint scaled at 1 h, 100 µM (in vitro [16]) was 1110 mL/min/kg and the microsomal CLint at 1 h, 100 µM (in vitro [24]) was 279 µL/min/mg.

For O=C(CN1CCOCC1)Nc1ccc2ncnc(Nc3ccc(Oc4cccc(C(F)(F)F)c4)c(Cl)c3)c2c1, the activity at 10 µM [14] was -94%, the activity at 10 µM [20] was -71% and the IC50 (AU565) was 364 nM. The activity at 10 µM [21] was -91%, the IC50 (MDA-MB-231) was 8850 nM and the IC50 (BT-474 [11]) was 298 nM. For the same compound, the IC50 (MCF7 [12]) was 11200 nM and the activity at 10 µM [39] was 82%.

Work on O=C(O)Cc1ccccc1Nc1c(Cl)cccc1Cl [DICLOFENAC] yielded a CLint scaled at 1 h, 100 µM (in vitro [16]) of 91.5 mL/min/kg, a half-life at 1 h, 100 µM (in vitro [19]) of 1 h and a remaining at 1 h, 100 µM (in vitro [23]) of 50.2%. It also gave a microsomal CLint at 1 h, 100 µM (in vitro [24]) of 23.1 µL/min/mg and a remaining at 1 h, 100 µM (in vitro [41]) of 102%.
